Results taken from patent US12697328B2, “Methods for treating metastasis with cathepsin C inhibitors” (Shanghai Institute of Nutrition and Health, Chinese Academy …, priority 2020, dated 2026).

How the values were obtained:
[1] = system: murine neutrophils; test: Two-chamber migration of neutrophils recruited by media of neutrophils pre-treated with 4T07 CM; assay type: cell-based; conditions: media of neutrophils pre-treated with CM of 4T07 with CTSC overexpressed; FIG. 7E
Method: The procedure of two-chamber migration assays was previously described (Zhuang et al., “Differential effects on lung and bone metastasis of breast cancer by Wnt signalling inhibitor DKK1,” Nat. Cell Biol. 19:1274-1285 (2017)). Briefly, 5×10^5 freshly isolated neutrophils in RPMI 1640 were added to the upper chamber (363096, BD), and a 1:1 mixture of RPMI 1640 and cancer cell CM, or medium from neutrophils cultured in cancer cell CM, was added to the lower chamber as the chemoattractant. The migrated cells in the lower chamber were counted after 3 h.

[2] = system: murine neutrophils; test: Reactive oxygen species (ROS) analysis of neutrophils pre-treated with 4T07 conditioned medium; assay type: cell-based; conditions: 4T07 CM with CTSC overexpressed, inhibitors 10 μM, FIGS. 8C, 8E
Method: To measure the ROS levels, neutrophils were cultured in cancer cell CM or non-conditioned medium, and treated with DMSO or various inhibitors, including Sivelestat (10 μM), BAY11-7082 (10 μM) and SB203580 (10 μM) for 1 h at 37° C. Cells were then harvested and resuspended in assay buffer (PBS, 4 mM EGTA, pH 7.4, containing 10 μM CM-H2DCFDA, Invitrogen), incubated for 15 min at 37° C. in dark, washed with pre-chilled PBS, followed by FACS analysis within 30 min.
The release of reactive oxygen species (ROS) by neutrophils is known to induce NET formation. […] Commum. 6, 6673 (2015).
ROS analysis of murine neutrophils pre-treated with 4T07 conditioned medium show increased ROS production results from CTSC overexpression (FIG. 8E).

[3] = system: lung cancer cells A549; test: NET-promoted tumor sphere formation, lung cancer; assay type: cell-based; conditions: neutrophil medium, CM with or without brensocatib, FIG. 11L
Method: (§1) To test the therapeutic effects of brensocatib in different cancer types in vitro, the ability of brensocatib to inhibit NET-promoted tumor sphere formation is investigated. The neutrophils are cultured with conditioned medium from tumor cells of colon cancer, liver cancer, lung cancer, gastric cancer and pancreatic cancer with or without brensocatib treatment to activate NETosis, and then the neutrophil medium was used in tumor sphere formation of these cancer cells to analyze the effect of neutrophil medium to facilitate tumor cell growth. The amount of tumorsphere in each sample is then determined by imaging.

[4] = system: 4T1 cells; test: Brensocatib treatment of mice after fat pad injection of 4T1 cells (lung metastasis of breast cancer); assay type: in vivo, BALB/c mice; conditions: brensocatib 5 mg/kg orally twice daily
Method: Female BALB/c and athymic mice aged 6-10 weeks were used in all animal experiments. Orthotropic and intravenous injection were performed as previously described (Zhuang et al., “Differential effects on lung and bone metastasis of breast cancer by Wnt signalling inhibitor DKK1,” Nat. Cell Biol. 19:1274-1285 (2017)). For EdU labeling assays, nude mice were intravenously injected with 2×10^5 cancer cells, followed by intraperitoneal (i.p.) injection of 100 ng/mouse EdU (ThermoFisher, C10640) 24 h before lung harvest. For neutrophil depletion assays, mice received 2 initial i.p. injection (200 μg/mouse) of 1A8 Ly6G antibody (BE0075-1, BioXCel) or rat IgG control (14131, Sigma) every 3 days before cancer cell injection and then maintenance injection twice a week after cancer cell injection. For Sivelestat or DNase I treatment, mice were i.p. injected with Sivelestat (50 mg/kg) or DNase I (5 mg/kg) 2 h before cancer cell injection, followed by daily injection of the reagents for 9 days, and then maintenance shots twice a week. For GSK484 treatment, mice were treated with GSK484 (20 mg/kg, i.p. daily shots for 20 days from day 7, and then maintenance shots every two days) following orthotopic injection of AT3 or 4T07 cells. For IL-1b blocking or IL6R/CCR1 inhibition assays, mice were orthotopically inoculated with 5×10^4 AT3 and treated with i.p. administration of IgG or the IL-1β blocking antibody (100 μg per mouse), or the IL6R blocking antibody (100 μg per mouse) and the CCR1 inhibitor BX471 (20 mg/kg), every two days from day 7 until the mice were sacrificed. For brensocatib treatment, BALB/c mice were orthotopically inoculated with 1×10^5 4T1 cells, and C57/BL6 mice were orthotopically inoculated with 2×10^5 AT3. Vehicle controls (0.5% HPMC, 0.1% Tween 80 in 0.1 M citrate buffer, pH 3) and brensocatib (5 mg/kg) were administered orally twice daily until the mice were sacrificed. Orthotopic tumors were surgically removed at the size of about 1 cm^3. Recombinant human active PR3 treatment (1.5 mg/kg) was administrated intravenously daily after intravenous inoculation of […] LM2 cells. For TSP-1 degradation assays, mice were i.p. injected with GSK484 (20 mg/kg) 2 h before cancer cell injection and followed by daily treatment. Then, the lungs were perfused with 50 ml of pre-chilled PBS through the right ventricle until they were cleared of blood at 72 h post injection of 3×10^6 AT3 or 4T07 cells. BLI was acquired with NightOWL II LB983 Imaging System (Bert-hold) and IVIS Spectrum CT (PerkinElmer). All animal studies were conducted according to the guidelines for the care and use of laboratory animals and were approved by the Institutional Animal Care and Use Committee of Shanghai Institute of Nutrition and Health.
The use of CTSC inhibitors to treat lung metastasis of breast cancer is investigated. Brensocatib (also known as AZD7986 or INS1007) is a CTSC-specific inhibitor used for treating Non-Cystic Fibrosis Bronchiectasis, and has currently entered Phase II clinical trials. See Doyle et aL, “Discovery of second generation reversible covalent DPP1 inhibitors leading to an oxazepane amidoacetonitrile based clinical candidate (AZD7986),” J. Med. Chem. 59:9457-9472 (2016). Brensocatib is administered to mice 7 days after the introduction of 4T1 cells via fat pad injection. A vehicle control group is also provided. Graphical data for change in tumor volume over time, numbers of pulmonary nodules formed, changes in mouse weight over time, and mouse survival rates, as well as the statistical diagram of the number of NETs in the lesions, are shown in FIGS. 10A-E. CTSC inhibitor brensocatib also suppresses the NETs-promoted tumor sphere formation of 4T1 cells (FIG. 10F).

[5] = system: gastric cancer cells AGS; test: NET-promoted tumor sphere formation, gastric cancer; assay type: cell-based; conditions: neutrophil medium, CM with or without brensocatib, FIG. 11M
Method: as §1

[6] = system: bone-metastatic breast cancer cell SCP2; test: Tumor sphere formation of bone-metastatic breast cancer cells in neutrophil medium; assay type: cell-based; conditions: neutrophils cultured with cancer cell CM with or without brensocatib, FIG. 11E
Method: The neutrophils are cultured with conditioned medium from the cancer cells with or without brensocatib treatment to activate NETosis, and then the neutrophil medium was used in tumor sphere formation of bone and liver-metastatic breast cancer cells to analyze the effect of neutrophil medium to facilitate tumor cell growth. The data are shown in FIG. 11E for bone-metastatic breast cancer cell SCP2 and FIG. 11H for liver-metastatic breast cancer cell SCP16.

Compound	migration of murine neutrophils [1]	ROS production / ROS levels [2]	NET-promoted tumor sphere formation (in vitro tumor growth) [3]	in situ tumor volume vs. time (primary tumor growth) ([4]; from 7 days after 4T1 fat pad injection, vs untreated control, FIG. 10A)	formation of NETs in the lung metastatic lesions ([4]; FIG. 10E)	pulmonary nodule formation ([4]; vs untreated mice, FIG. 10B)	body weight decrease ([4]; vs untreated mice, FIG. 10C)	survival rate ([4]; vs untreated mice, FIG. 10D)	neutrophil infiltration in the pulmonary lesions ([4]; vs untreated mice, FIG. 10E)	NET-promoted tumor sphere formation (in vitro tumor growth) [5]	capability of drug-treated neutrophils to facilitate tumor cell growth (tumor sphere formation) [6]
CC(C)(C)C(=O)Oc1ccc(S(=O)(=O)Nc2ccccc2C(=O)NCC(=O)O)cc1 [Silvelestat]	significantly reduced	blocks	–	–	–	–	–	–	–	–	–
Cn1c(=O)oc2ccc(-c3ccc(C[C@@H](C#N)NC(=O)[C@@H]4CNCCCO4)cc3)cc21 [brensocatib, (2S)—N-{(1S)-1-cyano-2-[4-(3-methyl-2-oxo-2,3-dihydro-1,3-benzoxazol-5-yl)phenyl]ethyl}-1,4-oxazepane-2-carboxamide]	–	–	inhibit in vitro tumor growth	does not affect primary tumor growth	significantly inhibits	significantly reduced	lower than untreated mice	significantly improves	reduced relative to untreated mice	inhibit in vitro tumor growth	significantly weakened
